We go through 3 compounds from ChEMBL document CHEMBL1147308, “Novel secoiridoid lactones from Jasminum multiflorum” (1989).

Assay [1] deals with Heart. Kind of assay: Cardiotropic activity in perfused guinea pig heart assessed as minimum effective concentration. It counts as functional, Cavia porcellus.
For assay [2], the system named is Heart. In words: Coronary dilatory activity in perfused guinea pig heart assessed as minimum effective concentration. It counts as functional, Cavia porcellus.
Assay [3] deals with Heart. Kind of assay: Cardiotropic activity in perfused guinea pig heart assessed as negative ionotropy. In kind it is functional, tissue-based. To be noted: Cavia porcellus.
Assay [4] relates to Heart. In words: Cardiotropic activity in perfused guinea pig heart assessed as negative chronotropy. It counts as functional, tissue-based. The conditions noted are these: Cavia porcellus.
The subject of assay [5] is Heart. Kind of assay: Cardiotropic activity in perfused guinea pig heart assessed as positive chronotropy. It counts as functional, tissue-based. The conditions noted are these: Cavia porcellus.
For assay [6], the system named is Heart. In words: Cardiotropic activity in perfused guinea pig heart assessed as positive ionotropy. In kind it is functional, tissue-based. To be noted: Cavia porcellus.

Each structure is given as a SMILES string. Activity calls are given as the source filed them. The calls are words filed in the database; no cut-off is given here.

On to `O=C1C[C@@H]2C(C(=O)OCCc3ccc(O)c(O)c3)=CO[C@@H](O)[C@@H]2[C@H](OCCc2ccc(O)c(O)c2)CO1` [JASMOLACTONE B], for which the MEC in the assay on Heart [1] is 9.7 ×10⁻⁶ M; in the assay on Heart [2] it was 4.8 ×10⁻⁶ M. The result with Heart [3] was Active. Besides, in the assay on Heart [4], the result was inactive.

For `CC(C)NCC(O)c1ccc(O)c(O)c1` (configuration not stated) [ISOPROTERENOL], the MEC in the assay on Heart [1] is reported as 4.7 ×10⁻⁸ M; with Heart [2], 4.7 ×10⁻⁷ M. In addition, the result with Heart [5] and with Heart [6] was Active.

Consider `COC(=O)C1=CO[C@@H](O)[C@H]2[C@@H]1CC(=O)OC[C@H]2OCCc1ccc(O)c(O)c1` [JASMOLACTONE A], for which the MEC with Heart [1] is on record as 2.5 ×10⁻⁵ M; with Heart [2] it was 1.3 ×10⁻⁵ M. In addition, in the assay on Heart [3], the outcome was Active. The outcome with Heart [4] was inactive.
